Article PMC8536627, “Hydrolytic stability of anticancer drugs and one metabolite in the aquatic environment” (Environmental Science and Pollution Research International, 2021)
Values joined by “and” are separate entries in the source; they are usually repeats but may differ in a detail not shown here. Equal values may be shown once. “Also recorded” adds a separate entry of the source. Read-outs that look alike come from different tables or passages of the source.

Assays:
[1] = milli-Q water, room temperature, natural pH; ref Franquet-Griell et al. [2017]; cited from earlier work
physchem [2] = type: physicochemical; conditions: for half-life: buffer, read-out: t½, extrapolated half-life (converted)
Experimental: By obtaining at least two rate constants for two different temperatures, it is possible to calculate the rate constants and, in consequence, half-lives at other temperatures, according to the Arrhenius equation: 3 k=A×e^−E/R×Torlnk=−E/R×T+lnA
Therefore, these equations were applied to extrapolate the obtained results and calculate the rate constants and half-lives of unstable anticancer drugs in more environmentally relevant temperatures (4, 10, or 15 °C), which are typical to natural waters.
Additionally, these observations confirm that CP is much more vulnerable for hydrolysis than IF, which is interesting how two isomers (like CP and IF) may differently undergo hydrolysis process. […] If the conclusions were drawn only based on the results from the preliminary experiments (incubation at 50 °C for 5 days), it would be assumed that both compounds, especially CP, are very unstable. […] Moreover, using Equation 3, it was possible to extrapolate the results to determine the rate constants and half-lives at the temperatures 4, 10, and 15 °C, which are ordinary for environmental waters (Table 2).

physchem [3] = type: physicochemical; conditions: for half-life: buffer
Experimental: Moreover, the complete preliminary test was repeated twice. […] Each measuring point was performed in two parallel replicates.
where t, time; ct, c0, concentration of the analyte at a time (0 means the beginning of the test); k, rate constant.
Based on this, the t1/2 was determined by using the equation: 2 t1/2=ln2/k
where t1/2, half-life of the analyte; k, rate constant.
The degradation was monitored for 30 days or until 90 % of a compound was degraded. Based on the obtained results (Fig. 4) the constant rates (k) and half-lives (t1/2) have been calculated (Table 1).
After determining the hydrolysis rate constants it was possible to calculate activation energy (Ea) of this process at each pH, either from plotting ln k from T^−1 (Figure 5) when there were three k values obtained for each compound and pH (CP at pH 4, 7, and 9 as well as IF at pH 4) or from the following equation (for IF at pH 7 and 9, where only two k values were obtained) (Table 1): 4 E=Rlnk2−lnk1/1/T1¯−1/T2
where R, gas constant (8.314 J/mol × K); k1, k2, rate constants for different temperatures; T, absolute temperature (K).

[4] = parameters: method as in Muñoz et al. ([1996]); conditions: 20 °C, pH 5; ref Muñoz et al. ([1996]); cited from earlier work
physchem [5] = conditions: for Degradation level in the preliminary test / Hydrolytic stability in the preliminary test: 5 days; for Degradation level in the preliminary test: dark; for Hydrolytic stability in the preliminary test: pH 4, 7 and 9, 50 °C
Experimental: The incubation was performed in the dark, in order to avoid the influence of the photolysis on degradation of the analytes. The water used for the preparation of buffers was autoclaved, all glassware was clean, flushed with methanol, and dried in high temperature. Samples were closed in glass tubes with a sealed cap. The air from above the solution was removed by a nitrogen stream just before capping. In the preliminary test, solutions of single analytes were prepared in each tested pH: 4, 7, and 9, which is required by the OECD guidelines. There was also a blank sample prepared for each pH. Samples in the preliminary test were prepared in two parallel replicates. Moreover, the complete preliminary test was repeated twice. The preliminary test was performed at 50 °C for 5 days. […] In the case of the extended tests, 7 measuring points were provided during the time of the test. Each measuring point was performed in two parallel replicates. […] The test was conducted for 30 days or to 90 % elimination of a compound. Obtained results were used to determine the hydrolysis rate constant (k) using equation: 1 lnCt/C0=kt
The HPLC-UV/Vis technique was applied to determine the level of hydrolytic degradation of the analytes. In the preliminary test, the control and blank samples were analyzed at the beginning and the end of the test. […] In the extended test, the samples collected in the time intervals were analyzed, and peak areas were compared to those obtained at the beginning of the test. This was used to determine the kinetic of this hydrolysis process by using the Equation 1. In general, each analyte was analyzed by a simple HPLC method with UV/Vis detection. Gemini C18 (Phenomenex, USA), 5 μm, 110 Å, 150 mm × 4.6 mm chromatographic column was applied for each method and three different mobile phases were used (water or 0.1 % HCOOH) mixed with the acetonitrile. The conditions applied during the LC-MS analysis with an ion trap detector for the qualitative analysis of the samples collected after the extended tests at 20 and 70 °C are presented in the Table S2.

[6] = parameters: method as in Białk-Bielińska et al. [2017]; conditions: ref Białk-Bielińska et al. [2017]; cited from earlier work
[7] = HPLC water with 4 % DMSO, ref Negreira et al. ([2013a]), cited from earlier work
[8] = parameters: method as in Negreira et al. ([2013b]); conditions: acidification of samples, organic modifier such as 50 % methanol or DMSO, previously tested conditions; ref Negreira et al. ([2013b]); cited from earlier work
[9] = ref Gómez-Canela et al. [2015], cited from earlier work

CCc1c2c(nc3ccc(OC(=O)N4CCC(N5CCCCC5)CC4)cc13)-c1cc3c(c(=O)n1C2)COC(=O)[C@]3(O)CC [irinotecan]
Hydrolytic stability in milli-Q water [1]: highly unstable

COc1cccc2c1C(=O)c1c(O)c3c(c(O)c1C2=O)C[C@@](O)(C(=O)CO)C[C@@H]3O[C@H]1C[C@H](N)[C@H](O)[C@H](C)O1 [doxorubicin]
Hydrolytic stability in milli-Q water [1]: highly unstable

O=P1(NCCCl)OCCCN1CCCl (stereo not drawn) [IF, ifosfamide]
k, extrapolated rate constant (physchem [2]; 4 °C, pH 4): 8.3e-05 h⁻¹ | k, extrapolated rate constant (physchem [2]; 4 °C, pH 7): 3e-06 h⁻¹ | k, extrapolated rate constant (physchem [2]; 4 °C, pH 9): 4e-06 h⁻¹ | k, extrapolated rate constant (physchem [2]; 10 °C, pH 4): 0.000107 h⁻¹ | k, extrapolated rate constant (physchem [2]; 10 °C, pH 7): 5e-06 h⁻¹ | k, extrapolated rate constant (physchem [2]; 10 °C, pH 9): 6e-06 h⁻¹ | k, extrapolated rate constant (physchem [2]; 15 °C, pH 4): 0.000199 h⁻¹ | k, extrapolated rate constant (physchem [2]; 15 °C, pH 7): 1.1e-05 h⁻¹ | k, extrapolated rate constant (physchem [2]; 15 °C, pH 9): 1.6e-05 h⁻¹ | half-life (physchem [2]; pH 4, 4 °C, pH 4): 349 days | half-life (physchem [2]; pH 4, 10 °C, pH 4): 271 days | half-life (physchem [2]; pH 4, 15 °C, pH 4): 146 days | half-life (physchem [2]; pH 7, 10 °C, pH 7): 6360 days | half-life (physchem [2]; pH 7, 15 °C, pH 7): 2580 days | half-life (physchem [2]; pH 9, 4 °C, pH 9): 6510 days | half-life (physchem [2]; pH 9, 10 °C, pH 9): 4520 days | half-life (physchem [2]; pH 9, 15 °C, pH 9): 1860 days | Degradation in 30 days (physchem [3]; 20 °C, pH 7): no degradation occurred; also recorded: no changes in the initial concentration; also recorded: completely stable | Degradation in 30 days (physchem [3]; 20 °C, pH 9): no degradation occurred; also recorded: no changes in the initial concentration; also recorded: completely stable | k, hydrolysis rate constant (physchem [3]; 20 °C, pH 4): 0.00038 h⁻¹ | k, hydrolysis rate constant (physchem [3]; 50 °C, pH 4): 0.008 h⁻¹ | k, hydrolysis rate constant (physchem [3]; 50 °C, pH 7): 0.0029 h⁻¹ | k, hydrolysis rate constant (physchem [3]; 50 °C, pH 9): 0.0036 h⁻¹ | k, hydrolysis rate constant (physchem [3]; 70 °C, pH 4): 0.059 h⁻¹ | k, hydrolysis rate constant (physchem [3]; 70 °C, pH 7): 0.041 h⁻¹ | k, hydrolysis rate constant (physchem [3]; 70 °C, pH 9): 0.049 h⁻¹ | half-life (physchem [3]; pH 4, 20 °C, pH 4, read-out: Half-life (converted)): ~80 days | half-life (physchem [3]; pH 4, 20 °C, pH 4, read-out: t½, half-life (converted)): 76.8 days | half-life (physchem [3]; pH 4, 50 °C, pH 4, read-out: t½, half-life (converted)): 3.6 days | half-life (physchem [3]; pH 4, 70 °C, pH 4, read-out: t½, half-life (converted)): 0.488 days | half-life (physchem [3]; pH 7, 50 °C, pH 7, read-out: t½, half-life (converted)): 10.1 days | half-life (physchem [3]; pH 7, 70 °C, pH 7, read-out: t½, half-life (converted)): 0.704 days | half-life (physchem [3]; pH 9, 50 °C, pH 9, read-out: t½, half-life (converted)): 7.99 days | half-life (physchem [3]; pH 9, 70 °C, pH 9, read-out: t½, half-life (converted)): 0.583 days | Ea, activation energy of hydrolysis (physchem [3]; pH 4): 20.1 kcal/mol | Ea, activation energy of hydrolysis (physchem [3]; pH 7): 29.21 kcal/mol | Ea, activation energy of hydrolysis (physchem [3]; pH 9): 29.21 kcal/mol and 28.7 kcal/mol | half-life [4]: around 620 days | Degradation level in the preliminary test (physchem [5]; pH 7, 50 °C): 22.3% | Degradation level in the preliminary test (physchem [5]; pH 9, 50 °C): 27.5%

Nc1ccn([C@@H]2O[C@H](CO)[C@@H](O)C2(F)F)c(=O)n1 [gemcitabine]
Hydrolytic stability in milli-Q water [1]: stable

CCCCCOC(=O)Nc1nc(=O)n([C@@H]2O[C@H](C)[C@@H](O)[C@H]2O)cc1F [capecitabine]
Hydrolytic stability in milli-Q water [1]: stable

N[C@@H](Cc1ccc(N(CCCl)CCCl)cc1)C(=O)O [melphalan]
Hydrolytic stability in milli-Q water [1]: highly unstable

CN(Cc1nc2c(N)nc(N)nc2nc1O)c1ccc(C(=O)N[C@@H](CCC(=O)O)C(=O)O)cc1 [7-OH-MTX, 7-hydroxymethotrexate]
Hydrolytic stability under ecotoxicological test conditions [6]: hydrolytically stable | Photolytic stability under ecotoxicological test conditions [6]: susceptible to photolysis | Remained intact ([7]; 4 °C, 24 h): 86% | Concentration decreased to ([7]; 4 °C, after 9 days): around 50% | Stability in 24 h test ([7]; 15 °C, 24 h): none of the 7-OH-MTX left in the solution | Degradation level / loss ([7]; 25 °C, 24 h incubation): full degradation | Stability after acidification and with organic modifier [8]: stable | half-life (physchem [5]; aqueous buffer): ≥ 365 days | Hydrolytic stability in the preliminary test (physchem [5]): hydrolytically stable | Degradation level in the preliminary test (physchem [5]; pH 4, 50 °C): 7%

CC[C@]1(O)C[C@H]2CN(CCc3c([nH]c4ccccc34)[C@@](C(=O)OC)(c3cc4c(cc3OC)N(C=O)[C@H]3[C@@](O)(C(=O)OC)[C@H](OC(C)=O)[C@]5(CC)C=CCN6CC[C@]43[C@@H]65)C2)C1 [vincristine]
Hydrolytic stability in milli-Q water [1]: highly unstable

O=C(O)CCCc1ccc(N(CCCl)CCCl)cc1 [chlorambucil]
Hydrolytic stability in milli-Q water [1]: highly unstable | Remaining part degraded within 24 h ([9]; hard water, initial concentration 10 ng μL^−1, within 24 h): 19% | Transformed at the beginning of the test ([9]; hard water, initial concentration 10 ng μL^−1): 81% | Transformation in hard water ([9]; initial concentration 2 ng μL^−1): instant and complete transformation

COc1cccc2c1C(=O)c1c(O)c3c(c(O)c1C2=O)C[C@@](O)(C(C)=O)C[C@@H]3O[C@H]1C[C@H](N)[C@H](O)[C@H](C)O1 [daunorubicin]
Hydrolytic stability in milli-Q water [1]: highly unstable

Cc1ccc(NC(=O)c2ccc(CN3CCN(C)CC3)cc2)cc1Nc1nccc(-c2cccnc2)n1 [IMT, imatinib]
Hydrolytic stability in the preliminary test (physchem [5]): hydrolytically stable

COc1c(C)c2c(c(O)c1C/C=C(\C)CCC(=O)O)C(=O)OC2 [mycophenolic acid]
Hydrolytic stability in milli-Q water [1]: stable
